Experimental data from PMC7386655, “Spontaneous mutations that confer resistance to 2-deoxyglucose act through Hxk2 and Snf1 pathways to regulate gene expression and HXT endocytosis” (PLoS Genetics, 2020).

Target: T1, Hxk2 (Saccharomyces cerevisiae, UniProt P04807)
T1 construct: expressed from low-copy plasmid in hxk1Δ hxk2Δ glk1Δ yeast; whole cell extract; probably C-terminal 3xV5 tag
T1 sequence (P04807 2-486): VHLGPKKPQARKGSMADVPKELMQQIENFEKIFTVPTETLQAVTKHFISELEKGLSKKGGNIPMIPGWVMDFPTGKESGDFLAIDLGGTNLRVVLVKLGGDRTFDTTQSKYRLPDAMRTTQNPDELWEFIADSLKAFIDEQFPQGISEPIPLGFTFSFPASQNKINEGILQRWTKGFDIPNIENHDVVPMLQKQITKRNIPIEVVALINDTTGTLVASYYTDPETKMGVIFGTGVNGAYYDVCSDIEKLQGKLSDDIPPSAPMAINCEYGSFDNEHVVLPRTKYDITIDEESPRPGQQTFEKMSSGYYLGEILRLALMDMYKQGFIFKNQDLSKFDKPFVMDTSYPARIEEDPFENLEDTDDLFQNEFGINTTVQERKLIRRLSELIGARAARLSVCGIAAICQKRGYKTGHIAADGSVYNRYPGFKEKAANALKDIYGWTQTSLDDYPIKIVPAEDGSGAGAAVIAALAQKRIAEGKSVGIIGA
Assay: G6PDH-coupled NADPH absorbance at […] nm, double reciprocal plot
Assay type: biochemical
Details: read-out: Km Glucose; 1 mM ATP, 10 mM MgCl2, pH 7.4; whole cell extract

OC[C@H]1OC(O)[C@H](O)[C@@H](O)[C@@H]1O (stereo partly shown) [glucose]
Km: 190 µM
